Data as given in publication PMC6387620 (Nature microbiology, 2018).

Test system: E. coli BW25113
Type: cell-based, Escherichia coli
Details: n=3

## Polymyxin B
  Increase in Polymyxin B resistance: five
